Test results as given in article PMC8851638 (ACS Omega, 2022).
Converted amounts (≈) assume the structure as drawn. “And” between values parts separate entries of the source, which are not always exact repeats. Equal entries are not always repeated.

Experiments:
[1] = tested on: S. aureus; assay: Checkerboard combination assay with Ciprofloxacin; format: cell-based, Staphylococcus aureus
[2] = tested on: C. albicans100; assay: Single-step resistance selection; format: cell-based, Candida albicans; conditions: 4 × MIC, 48 h
[3] = tested on: K. pneumoniae; assay: Single-step resistance selection; format: cell-based; conditions: 4 × MIC, 48 h
[4] = tested on: B. subtilis (MDR00423); assay: MIC and MBC by broth microdilution; format: cell-based
[5] = tested on: A. baumannii (MDR00521); assay: MIC and MBC by broth microdilution; format: cell-based
[6] = target: T1, dihydrofolate reductase (DHFR) (Homo sapiens, UniProt P00374); assay: DHFR inhibition; format: biochemical
T1 sequence (P00374 1-187): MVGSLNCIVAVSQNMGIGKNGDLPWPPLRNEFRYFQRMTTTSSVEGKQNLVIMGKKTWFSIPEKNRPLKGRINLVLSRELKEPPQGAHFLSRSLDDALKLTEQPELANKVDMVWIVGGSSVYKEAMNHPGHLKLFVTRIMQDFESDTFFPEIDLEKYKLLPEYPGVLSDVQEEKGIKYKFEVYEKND

[7] = tested on: A. baumannii; assay: Single-step resistance selection; format: cell-based; conditions: 4 × MIC, 48 h
[8] = tested on: S. epidermidis; assay: Single-step resistance selection; format: cell-based, Staphylococcus epidermidis; conditions: 4 × MIC, 48 h
[9] = tested on: A. baumannii; assay: Checkerboard combination assay with Ciprofloxacin; format: cell-based
[10] = tested on: K. pneumoniae; assay: Checkerboard combination assay with Ciprofloxacin; format: cell-based
[11] = tested on: C. albicans100 (MDR00100); assay: Agar well-diffusion antimicrobial sensitivity assay; format: cell-based, Candida albicans; conditions: Candida albicans, read-out: Inhibition Zone (IZ)
[12] = tested on: E. coli (MDR00501); assay: MIC and MBC by broth microdilution; format: cell-based
[13] = tested on: C. albicans100; assay: Checkerboard combination assay with Ketoconazole; format: cell-based, Candida albicans
[14] = tested on: K. pneumoniae (MDR00244); assay: MIC and MBC by broth microdilution; format: cell-based; conditions: ratio in parentheses
[15] = tested on: C. albicans200 (MDR00200); assay: MIC and MFC by broth microdilution; format: cell-based, Candida albicans
[16] = tested on: B. subtilis; assay: Checkerboard combination assay with Ciprofloxacin; format: cell-based
[17] = tested on: B. subtilis; assay: Single-step resistance selection; format: cell-based; conditions: 4 × MIC, 48 h
[18] = tested on: E. coli; assay: Checkerboard combination assay with Ciprofloxacin; format: cell-based
[19] = tested on: C. albicans200 (MDR00200); assay: Agar well-diffusion antimicrobial sensitivity assay; format: cell-based, Candida albicans; conditions: Candida albicans, read-out: Inhibition Zone (IZ)
[20] = tested on: S. aureus; assay: Single-step resistance selection; format: cell-based, Staphylococcus aureus; conditions: 4 × MIC, 48 h
[21] = tested on: RBCs; assay: Hemolytic assay; format: cell-based; conditions: human RBCs; compounds 1.0 mg/mL; Triton X-100 0.1% v/v; 37 °C, 35 min
[22] = tested on: S. aureus biofilm; assay: Staphylococcus biofilm mass reduction; format: cell-based; conditions: at their MIC
[23] = tested on: BNL: mouse normal liver cells; assay: In vitro cytotoxicity on normal cell line; format: cell-based
[24] = In vitro cytotoxicity on normal cell line; format: cell-based, mouse; conditions: mouse, BNL normal liver cells
[25] = tested on: H9C2: rat heart/myocardium; assay: In vitro cytotoxicity on normal cell line; format: cell-based
[26] = In vitro cytotoxicity on normal cell line; format: cell-based, rat; conditions: rat, H9C2 heart/myocardium cells
[27] = target: E. coli DNA gyrase (Escherichia coli, UniProt P0AES4+P0AES6); assay: DNA gyrase inhibition; format: biochemical
[28] = tested on: E. coli (MDR00501); assay: Agar well-diffusion antimicrobial sensitivity assay; format: cell-based; conditions: Escherichia coli, read-out: Inhibition Zone (IZ)
[29] = tested on: S. aureus (MDR00231); assay: MIC and MBC by broth microdilution; format: cell-based, Staphylococcus aureus
[30] = tested on: Vero: green monkey kidney; assay: In vitro cytotoxicity on normal cell line; format: cell-based
[31] = In vitro cytotoxicity on normal cell line; format: cell-based, green monkey; conditions: green monkey, Vero kidney cells
[32] = tested on: S. epidermidis (MDR00223); assay: MIC and MBC by broth microdilution; format: cell-based, Staphylococcus epidermidis
[33] = tested on: S. aureus (MDR00231); assay: Agar well-diffusion antimicrobial sensitivity assay; format: cell-based, Staphylococcus aureus; conditions: Staphylococcus aureus, read-out: Inhibition Zone (IZ)
[34] = tested on: E. coli; assay: Single-step resistance selection; format: cell-based; conditions: 4 × MIC, 48 h
[35] = tested on: C. albicans200; assay: Checkerboard combination assay with Ketoconazole; format: cell-based, Candida albicans
[36] = tested on: C. albicans100 (MDR00100); assay: MIC and MFC by broth microdilution; format: cell-based, Candida albicans
[37] = tested on: S. epidermidis biofilm; assay: Staphylococcus biofilm mass reduction; format: cell-based; conditions: at their MIC
[38] = tested on: C. albicans200; assay: Single-step resistance selection; format: cell-based, Candida albicans; conditions: 4 × MIC, 48 h
[39] = tested on: S. epidermidis (MDR00223); assay: Agar well-diffusion antimicrobial sensitivity assay; format: cell-based, Staphylococcus epidermidis; conditions: Staphylococcus epidermidis, read-out: Inhibition Zone (IZ)
[40] = tested on: S. epidermidis; assay: Checkerboard combination assay with Ciprofloxacin; format: cell-based, Staphylococcus epidermidis

Sequence of E. coli DNA gyrase (P0AES4 whole entry, the tested form may be a part, one chain of several): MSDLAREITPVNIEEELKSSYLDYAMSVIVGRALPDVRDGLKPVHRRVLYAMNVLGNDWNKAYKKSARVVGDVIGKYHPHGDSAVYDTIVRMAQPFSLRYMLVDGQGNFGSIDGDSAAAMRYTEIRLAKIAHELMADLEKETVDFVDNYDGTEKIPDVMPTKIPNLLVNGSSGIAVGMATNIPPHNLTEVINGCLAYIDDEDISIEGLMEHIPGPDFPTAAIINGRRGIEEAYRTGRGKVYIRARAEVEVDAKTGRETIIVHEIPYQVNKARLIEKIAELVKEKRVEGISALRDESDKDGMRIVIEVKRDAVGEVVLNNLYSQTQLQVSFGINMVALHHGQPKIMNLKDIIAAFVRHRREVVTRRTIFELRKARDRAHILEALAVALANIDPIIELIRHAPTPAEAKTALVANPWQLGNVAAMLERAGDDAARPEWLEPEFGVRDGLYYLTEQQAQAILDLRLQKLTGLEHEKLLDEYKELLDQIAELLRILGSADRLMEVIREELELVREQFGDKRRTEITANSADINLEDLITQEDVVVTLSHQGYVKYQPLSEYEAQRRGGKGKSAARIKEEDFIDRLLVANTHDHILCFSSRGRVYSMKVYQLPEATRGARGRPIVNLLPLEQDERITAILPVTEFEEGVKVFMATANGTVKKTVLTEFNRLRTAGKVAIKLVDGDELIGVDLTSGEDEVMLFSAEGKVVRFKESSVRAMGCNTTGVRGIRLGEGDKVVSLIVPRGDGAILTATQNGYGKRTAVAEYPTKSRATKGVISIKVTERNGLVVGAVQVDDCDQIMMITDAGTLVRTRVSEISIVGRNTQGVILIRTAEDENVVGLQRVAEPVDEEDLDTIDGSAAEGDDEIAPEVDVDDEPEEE

N#CC(=Cc1cn(-c2ccccc2)nc1-c1ccccc1)C1=NC(=O)CS1 [Compound 4a, 3-(1,3-Diphenyl-1H-pyrazol-4-yl)-2-(4-oxo-4,5-dihydrothiazol-2-yl)acrylonitrile]
combination effect [1]: S (S: synergism) | fractional inhibitory concentration index (FICI) [1]: 0.25 | Single-step resistance frequency (mutation frequency) [2]: 1.40 × 10^–8 | Single-step resistance frequency (mutation frequency) [3]: 1.54 × 10^–9 | MBC/MIC ([4]; B. subtilis, ratio in parentheses): 0.5 | MIC ([4]; Bacillus subtilis, read-out: MIC (mean ± SEM), B. subtilis, broth microdilution): 0.45 ± 0.5 µg/mL (≈ 1.21 µM) | MIC (mean ± SEM) ([5]; broth microdilution): 0.44 ± 0.3 µg/mL (≈ 1.19 µM) | MBC/MIC ([5]; ratio in parentheses): 1 | IC50 [6]: 0.98 ± 0.11 µM | Single-step resistance frequency (mutation frequency) [7]: 1.00 × 10^–9 | Single-step resistance frequency (mutation frequency) [8]: 2.43 × 10^–7 | combination effect [9]: S (S: synergism) | fractional inhibitory concentration index (FICI) [9]: 0.25 | combination effect [10]: S (S: synergism) | fractional inhibitory concentration index (FICI) [10]: 0.5 | zone of inhibition at 100000 µg/mL [11]: 29 ± 0.23 mm | MIC (mean ± SEM) ([12]; E. coli, broth microdilution): 0.45 ± 0.2 µg/mL (≈ 1.21 µM) | MBC/MIC ([12]; E. coli, ratio in parentheses): 0.5 | MIC ([12]; Escherichia coli, read-out: MIC (mean ± SEM), E. coli, broth microdilution): 0.45 µg/mL (≈ 1.21 µM) | combination effect [13]: S (S: synergism) | fractional inhibitory concentration index (FICI) [13]: 0.5 | MBC/MIC [14]: 0.5 | MIC (mean ± SEM) ([15]; C. albicans200, broth microdilution): 0.22 ± 0.2 µg/mL (≈ 0.594 µM) | MFC/MIC ([15]; C. albicans200, ratio in parentheses): 0.5 | MIC ([15]; Candida albicans, read-out: MIC (mean ± SEM), C. albicans200, broth microdilution): 0.22 µg/mL (≈ 0.594 µM) | combination effect [16]: S (S: synergism) | fractional inhibitory concentration index (FICI) [16]: 0.5 | Single-step resistance frequency (mutation frequency) [17]: 2.20 × 10^–8 | combination effect [18]: S (S: synergism) | fractional inhibitory concentration index (FICI) [18]: 0.25 | zone of inhibition at 100000 µg/mL [19]: 31 ± 0.22 mm | Single-step resistance frequency (mutation frequency) [20]: 1.61 × 10^–7 | %lysis of RBCs [21]: 7.55% and 7.55 ± 0.63% | reduction of biofilm formation [22]: 74.3% | Selectivity index against DHFR ([23]; IC50 of BNL / IC50 of DHFR): 101.44 | Selectivity index against DNA gyrase ([23]; IC50 of BNL / IC50 of DNA gyrase): 5.44 | IC50 at 72 h [24]: 99.4 ± 1.04 µM | Selectivity index against DHFR ([25]; IC50 of H9C2 / IC50 of DHFR): 105.40 | Selectivity index against DNA gyrase ([25]; IC50 of H9C2 / IC50 of DNA gyrase): 5.66 | IC50 at 72 h [26]: 103 ± 1.5 µM | IC50 [27]: 18.2 ± 0.67 µM | zone of inhibition at 100000 µg/mL [28]: 26 ± 0.33 mm | MBC/MIC ([29]; S. aureus, ratio in parentheses): 0.5 | MIC ([29]; Staphylococcus aureus, read-out: MIC (mean ± SEM), S. aureus, broth microdilution): 0.43 ± 0.4 µg/mL (≈ 1.16 µM) | Selectivity index against DHFR ([30]; IC50 of Vero / IC50 of DHFR): 88.70 | Selectivity index against DNA gyrase ([30]; IC50 of Vero / IC50 of DNA gyrase): 4.76 | IC50 at 72 h [31]: 86.9 ± 0.97 µM | MBC/MIC ([32]; S. epidermidis, ratio in parentheses): 1 | MIC ([32]; Staphylococcus epidermidis, read-out: MIC (mean ± SEM), S. epidermidis, broth microdilution): 0.48 ± 0.2 µg/mL (≈ 1.3 µM) | zone of inhibition at 100000 µg/mL [33]: 31 ± 0.18 mm | Single-step resistance frequency (mutation frequency) [34]: 1.20 × 10^–9 | combination effect [35]: S (S: synergism) | fractional inhibitory concentration index (FICI) [35]: 0.5 | MIC (mean ± SEM) ([36]; C. albicans100, broth microdilution): 0.45 ± 0.3 µg/mL (≈ 1.21 µM) | MFC/MIC ([36]; C. albicans100, ratio in parentheses): 1 | MIC ([36]; Candida albicans, read-out: MIC (mean ± SEM), C. albicans100, broth microdilution): 0.45 µg/mL (≈ 1.21 µM) | reduction of biofilm formation [37]: 64.8% | Single-step resistance frequency (mutation frequency) [38]: 1.58 × 10^–7 | zone of inhibition at 100000 µg/mL [39]: 28 ± 0.13 mm | combination effect [40]: S (S: synergism) | fractional inhibitory concentration index (FICI) [40]: 0.5
